{
  "source": "patent US20250197389A1",
  "about": "“NITROGEN-CONTAINING HETEROCYCLIC COMPOUND” (SHANGHAI SHIJIANG BIOTECHNOLOGY CO., LTD, priority 2022, published 2025)",
  "format_in_all_cases": "cell-based, human",
  "conditions_in_all_cases": "H2O2 +, CsA −; untreated = 100",
  "key": {"[1]": {"test_system": "mitochondria permeability transition pore", "assay": "Mitochondria membrane potential (TMRM) in Daoy cell transfected with virus vector carrying PPIF shRNA", "from_the_text": "(§1) For cells with active mitochondria permeability transition pore, adding peroxide (such as H2O2) could increase the activity of mitochondria permeability transition pore, resulting in a decrease in mitochondria membrane potential."}, "[2]": {"test_system": "mitochondria permeability transition pore", "assay": "Mitochondria membrane potential (TMRM) in Daoy cell transfected with empty virus vector", "from_the_text": "as §1"}, "[3]": {"test_system": "mitochondria permeability transition pore", "assay": "Mitochondria membrane potential (TMRM) in Daoy cell, mPTP activity", "from_the_text": "as §1"}},
  "data": [
    {"compound": "OO", "note": "[Compound H2O2, H2O2]", "values": [
      {"measurement": "Relative TMRM signal intensity (%) in the Daoy cell transfected with virus vector carrying PPIF shRNA, mean value", "setting": "[1]", "result": 95, "unit": "%"},
      {"measurement": "Relative TMRM signal intensity (%) in the Daoy cell transfected with empty virus vector, mean value", "setting": "[2]", "result": 79, "unit": "%"},
      {"measurement": "Relative TMRM signal intensity (%) in Daoy cell, mean value", "setting": "[3]", "result": 82, "unit": "%"}
    ]}
  ]
}
